Test [1] has as its system MC4-L3 cell line. Briefly: In vitro hormone response, 3H-thymidine uptake, MC4-L3. The test is classed as cell-based, mouse. The protocol: (§1) 3H-Thymidine uptake: In a 96 well microplate, 0.1 ml/well of a cell suspension were seeded in EM at a concentration of 10^5 cell/ml. After attachment (24 hs), the cells were incubated for 72 hs with the experimental solutions to be tested. Half the media was changed every 24 hs. The cells were incubated with 0.4 μCi of ^3H-thymidine (specific activity: 20 Ci/mmol) for 24 hs, trypsinized and harvested in a cell harvester. Filters were counted in a liquid scintillation counter. Assays were performed in octuplicates and mean and standard deviation were calculated for each solution tested. The difference between controls and experimental groups were analyzed by ANOVA followed by Dunnet's t test between groups.

Test [2] has as its system MC4-L2 cell line. The test can be described thus: In vitro hormone response, 3H-thymidine uptake, MC4-L2. The test is classed as cell-based, mouse. The method, then:
as §1

Test [3] has as its system MC7-L1 cell line. Briefly: In vitro hormone response, 3H-thymidine uptake, MC7-L1. The format is cell-based, mouse. On the set-up: In vitro proliferative response: key to the marks not given beside the values. The method, then: as §1
Test [4] has as its system MC4-L1 cell line. The test can be described thus: In vitro hormone response, 3H-thymidine uptake, MC4-L1. The format is cell-based, mouse. The method, then:
as §1

The test system of test [5] is MC7-L1 tumors. Briefly: In vivo hormone response, MC7-L1 tumors in BALB/c female mice. Set-up: species or system mouse. To be noted: for effect on tumor size (tumor regression): MC7-L1 tumors, ZK 10 mg/Kg or RU 6.5 mg/Kg daily sc, E2 5 mg silastic pellet sc. The protocol: (§2) Cells were trypsinized and resuspended in 10 fold excess of culture medium and 10% FCS. After centrifugation cells were resuspended in serum-free medium and […] were injected sc in a final volume of 0.1 ml using a 21 gauge needle in the right inguinal flank of BALB/c mice which have been inoculated contralaterally with 40 mg MPA depot (Gador Laboratories, Buenos Aires). The mice were examined every three days for the development of palpable tumors. At the end of the experiment the animals were killed and the tumors excised. Complete autopsies were performed to detect the presence of metastases. Animal care was in agreement with institutional guidelines. Cells from different lines were inoculated into BALB/c female mice treated or not with MPA as described previously. If tumors grew similarly in treated and untreated animals, the tumors growing in untreated mice were used for the next passage. Tumors were transplanted by trocar sc in the right inguinal flank of 2 month old, BALB/c female mice. Hormone treatments were initiated when the tumors reached around 50 mm2. RU (6.5 mg/Kg body weight) and ZK (10 mg/Kg body weight) were inoculated as daily sc injections. E2 was administered as 5 mg silastic pellets implanted sc. Tumor growth was measured every 2-3 days.

Test [6] concerns C4-HD primary and secondary cultures. The settings on record: primary and secondary cultures of C4-HD (Dran G. et al. 1995); cited from earlier work.
Test [7] concerns MC4-L3 tumors. The test can be described thus: In vivo hormone response, MC4-L3 tumors in BALB/c female mice. Set-up: species or system mouse. The settings on record: for effect on tumor size (tumor regression): MC4-L3 tumors about 50 mm2, ZK 10 mg/Kg or RU 6.5 mg/Kg daily sc, E2 5 mg silastic pellet sc. The protocol: as §2
The subject of test [8] is MC4-L1 tumors. Briefly: In vivo hormone response, MC4-L1 tumors in BALB/c female mice. On the set-up: species or system mouse. To be noted: for effect on tumor size (tumor regression): MC4-L1 tumors about 50 mm2, no MPA, ZK 10 mg/Kg or RU 6.5 mg/Kg daily sc, E2 5 mg silastic pellet sc. The method, then:
as §2

Test [9] has as its system MC4-L2 tumors. The test can be described thus: In vivo hormone response, MC4-L2 tumors in BALB/c female mice. On the set-up: species or system mouse. The method, then: as §2
[10] abbreviates: MC4-L1, early passages (before passage number 16).

Regarding `C[C@]12CC[C@@H]3c4ccc(O)cc4CC[C@H]3[C@@H]1CC[C@@H]2O` [E2, estradiol], the “In vitro proliferative response” value in [1] (MC4-L3, Table 2 grade) is recorded as “−”; in [2] (MC4-L2, Table 2 grade), “+”; in [3] (MC7-L1, Table 2 grade) it was “++”; in test [4] (MC4-L1, Table 2 grade) it was “±”. In addition, in test [3] (MC7-L1), the “concentration at which the higher values of proliferation were obtained” value is “about 1 nM”. The “effect on tumor size (tumor regression)” value in test [5] was “not inhibited”.

For `CC(=O)O[C@]1(C(C)=O)CC[C@H]2[C@@H]3C[C@H](C)C4=CC(=O)CC[C@]4(C)[C@H]3CC[C@@]21C` [MPA, medroxyprogesterone acetate], the “effect on cell proliferation (3H-thymidine uptake)” value was “significant stimulatory effect” in test [2] (MC4-L2, 0.1 nM to about 10 nM); “stimulatory effect” in test [4] (setting [10]); “only evident (p<0.05) with uM concentrations” in test [4] (MC4-L1, later passages). The “effect on cell proliferation” value in test [6] is “stimulates directly cell proliferation”. In test [3] (MC7-L1, about 1 nM to about 1 uM), the “effect on cell growth (3H-thymidine uptake)” value is on record as “significantly stimulates cell growth”. Moreover, the “MPA dependence of tumor growth” value is recorded as “PD pattern” in [7] (MC4-L3, MPA-treated vs non-treated mice); “PI pattern of growth” in [5] (MC7-L1, MPA-treated vs non-treated mice); “same pattern of growth that was observed in the parental tumor line” in test [8] (MC4-L1 inoculated sc, mice treated or not with 40 mg MPA depot sc); “MPA-dependent” in [8] (MC4-L1 subculture 70, 3rd passage); “growth was favored” in test [8] (MC4-L1 subculture 70, next passage); “PI pattern of growth” in test [9] (MC4-L2, MPA-treated vs non-treated mice).

Consider TGFβ1: TGFβ1, for which the “effect on cell proliferation (3H-thymidine uptake)” value in test [1] (MC4-L3) is given as “inhibited”; in [4] (MC4-L1, later passages) it was “significant inhibition of cell growth”. Also, the “effect on thymidine uptake” value in test [3] (MC7-L1) is on record as “had no effects”.

Take `CN(C)c1ccc([C@H]2C[C@]3(C)[C@@H](CC[C@]3(O)CCCO)[C@@H]3CCC4=CC(=O)CCC4=C32)cc1` [ZK, onapristone]: the “effect on cell proliferation (3H-thymidine uptake)” value in test [2] (MC4-L2, about 0.1 to about 1 uM) is “in some experiments showed an inhibitory effect”; in [4] (MC4-L1, μM concentrations), “stimulated cell proliferation”. In addition, the “effect on thymidine uptake” value in test [3] (MC7-L1) is recorded as “did not modify thymidine uptake”. Also, the “effect on tumor size (tumor regression)” value in [7] is given as “Complete regression”; in test [5], “not inhibited”; in [8], “showed tumor regression”.

Regarding `CC#C[C@]1(O)CC[C@H]2[C@@H]3CCC4=CC(=O)CCC4=C3[C@@H](c3ccc(N(C)C)cc3)C[C@@]21C` [RU, mifepristone], the “effect on cell proliferation (3H-thymidine uptake)” value in test [2] (MC4-L2) is “did not induce any change”; in test [3] (MC7-L1, about 0.1 to about 1 μM), “stimulatory effect”; in test [4] (setting [10]), “agonist effect”. Moreover, the “effect on tumor size (tumor regression)” value in test [7] is “Complete regression”; in test [5] it was “not inhibited”; in [8], “Only animals treated with ZK showed tumor regression”; in test [9] (MC4-L2 tumors about 50 mm2, RU 6.5 mg/Kg daily sc), “complete regression”.

The values above are taken from US6808924B1, “Mouse mammary tumor lines expressing estrogen and progesterone receptors” (priority 2000, dated 2004).
